Assay results as given in patent US4696920A, “Certain 2-substituted 1,3-propylidenediphosphonate derivatives, pharmaceutical compositions containing them and their use as antihypertensive agents” (priority 1984, dated 1987).
Where two headings read alike, the source gives them in different places.

Experiments:
[1] = system: calcium channel binding site for [^3 H]-Nitrendipine (rat brain membranes); assay: [^3 H]-Nitrendipine binding to rat brain membranes; set-up: species or system rat (male Wistar); details: for Specifically bound [^3 H]-Nitrendipine % of control value: compound concentration 1.0 μM; for Specifically bound [^3 H]-Nitrendipine % of control value / Bound ^3 H at 1.0 μM / Bound ^3 H at 0.1 μM / modulation of [^3 H]-Nitrendipine binding (in words): Table 1a; for Bound ^3 H at 1.0 μM / Bound ^3 H at 0.1 μM: ratio of [^3 H]-Nitrendipine bound at 1.0 and 0.1 μM compound
Protocol: Diltiazem hydrochloride was a generous gift from Goedecke A. G.
Suitable dilutions were made in 50 mM Tris-HCl buffer (pH 7.4) containing 150 mM NaCl and 1 mM CaCl2. The ethanol concentration in the final assay never exceeded 0.1%.
The purity of the radioligand and of the various agents tested was monitored by thin layer chromatography on silica gel plates.
The following procedure was adapted from Bellemann et al (Proc. Nat. Acad. Sci. 80, 2356, 1983), and Gould et al (Proc. Nat. Acad. Sci. 79, 3656, 1982).
Adult male Wistar rats weighing 250-300 g were anesthetized with carbon dioxide prior to decapitation. The brain was removed then immersed in ice-cold 0.32M sucrose and washed 2-3 times with fresh solution. Cerebral cortex was minced and homogenized (Potter-Elvehjem homogenizer) in 10 volumes of ice-cold sucrose solution. The homogenate was centrifuged (4° C.) at 1000×g for 15 minutes. The resulting supernatant was then centrifuged at 90000×g (30 minutes) and the pellet was washed twice with 20 ml ice-cold 50 mM Tris-HCl pH 7.4.
The final pellet was resuspended in 50 mM Tris-HCl pH 7.4/150 mM NaCl/1 mM CaCl2 to give a protein concentration of 4 mg/ml.
The membrane suspension was kept on ice until used. Binding assays were performed in subdued light to prevent dihydropyridine breakdown. Membrane protein (400 μg/tube) was incubated in 50 mM Tris-HCl buffer (pH 7.4)/150 mM NaCl/1 mM CaCl2 with the indicated concentrations of radioligand and test compounds or known calcium antagonists, in a total volume of 2 ml. After the indicated time intervals, the reaction was terminated by rapid filtration through Whatman GF/B glass fiber filters (2.4 cm diameter) on a Millipore filter holder. The assay tube was rinsed with 2 ml ice-cold 50 mM Tris-HCl pH (7.4) and the precipitate was further washed with 2×5 ml of the same buffer.
Filters were dried under a heat lamp and were extracted with 10 ml of liquid scintillation cocktail (Toluene/Triton X-100, 2/1 containing 4 g Omnifluor/1) prior to tritium determination at 48% counting efficiency.
Assays were performed in duplicate or triplicate.
Data were expressed as percent specific [^3 H]-Nitrendipine binding relative to the established control value.
Compound activity in the [^3 H]-Nitrendipine binding assay was evaluated by using the following criteria:
1. [^3 H]-Nitrendipine binding at 1.0 μM compound final concentration was either below 95% or above 105% of the control value determined in absence of compound.
2. […] This ratio is indicative of a dose response relationship within the compound concentration range tested, when the value differs appreciably from 1.0.

[2] = system: rat trachea contraction induced by KCl depolarization; assay: KCl-induced rat trachea contraction; set-up: species or system rat (male SHR, Okamoto-Aoki); details: for activity at 1 µM: Rattus norvegicus, 40 min, read-out: Contraction (% max.)
Protocol: Spontaneously hypertensive male rats (SHR) Okamoto-Aoki Strain, weighing 300-400 g were used in this study. They were killed by bleeding after Pentobarbital anesthesia (Nembutal, Abbott Co, 40 mg/kg). Their entire trachea was quickly removed and dissected free of fat and connective tissue in Krebs-Ringer solution. A strip (4 mm×40 mm), obtained by spirally cutting the trachea, was immediately suspended in a 50 ml Krebs-Ringer solution and continuously bubbled with a O2 /CO2 (95/5) mixture. Bath temperature was maintained at 37±1° C. The composition (mM) of the Krebs-Ringer solution modified by Nghiem, was as follows: NaCl, (118.0); KCl, (4.7); CaCl2, (2.5); MgCl2, (1.18); NaHCO3, (12.5); KH2 P04, (1.18); glucose, (5.5) in bidistilled water (pH 7.4). Each strip was equilibrated under initial tension (1.5-2 g) for 1-2 hours and the bath solution changed every 30 min. A contractile or relaxant response was isometrically measured with a force-displacement transducer (Ugo-Basile) and recorded on a polygraph (Beckman).
After equilibration, KCl was added to the bath at 65 mM final concentration. This concentration produced maximum trachea contraction. Under these conditions, a plateau phase showing a tonic sustained contraction was reached within 30 minutes. Drugs were added 30 minutes after the plateau phase has been reached (final concentration=1.0 μM). […] Recordings of the residual trachea contraction were made 40 minutes after drug addition to the bathing fluid. The initial KCl induced contraction was taken as the maximum KCl response (100%). Results were expressed as % of maximal contraction. Nifedipine, Prenylamine, Flunarizine and Diltiazem were used as reference standards to validate this assay.
All 1,3-diphosphonates and drugs were dissolved in saline (0.9% NaCl) except when water insoluble, then the compounds were dissolved in 2% ethanol. The final concentration of ethanol used has been shown not to interfere with the assay.
Results are expressed as mean values±SEM, the Student's t-test was used for statistical analysis.

[3] = final concentration 1.0 μM, 65 mM KCl, 40 minutes after drug addition, mean ± SEM

% [^3 H]-Nitrendipine bound ([1]; reference standards at 1 μM)	Compound	Specifically bound [^3 H]-Nitrendipine % of control value [1]	Bound ^3 H at 1.0 μM / Bound ^3 H at 0.1 μM [1]	activity at 1 µM [2]	activity on KCl-induced trachea contraction (in words) ([2]; final concentration 1.0 μM)	modulation of [^3 H]-Nitrendipine binding (in words) [1]	activity at 1 µM [2, 3]
	O=P(O)(O)CC(Cc1ccccc1)CP(=O)(O)O [Compound 2, 2-Benzyl-1,3-propylidenediphosphonic acid]	98 % of control value	1.002				
	O=P(O)(O)CC(CCc1ccccc1)CP(=O)(O)O [Compound 3]	94 % of control value	0.955				
	O=P(O)(O)CC(CCCc1ccccc1)CP(=O)(O)O [Compound 4]	99 % of control value	0.957				
	O=P(O)(O)CC(Cc1ccc(Cl)cc1)CP(=O)(O)O [Compound 5]	99 % of control value	1.003				
	COP(=O)(CC(Cc1ccccc1)CP(=O)(OC)OC)OC [Compound 10, Tetramethyl 2-benzyl-1,3-propylidenediphosphonate]	92 % of control value	0.983	91%			
	COP(=O)(CC(CCc1ccccc1)CP(=O)(OC)OC)OC [Compound 11]	96 % of control value	1.024				
	CCOP(=O)(CC(Cc1cccc2ccccc12)CP(=O)(OCC)OCC)OCC [Compound 37]	104 % of control value	1.011	53.8 ± 0.4%	potent pharmacological activity		
	CCOP(=O)(CC(Cc1ccc(-c2ccccc2)cc1)CP(=O)(OCC)OCC)OCC [Compound 38]	60 % of control value	0.721	84 ± 2.4%	potent pharmacological activity	strong inhibitors	
	CCOP(=O)(CC(CP(=O)(OCC)OCC)C(c1ccccc1)c1ccccc1)OCC [Compound 39]	110 % of control value	1.220	96 ± 4.9%			
	CCOP(=O)(CC(CP(=O)(OCC)OCC)c1ccccn1)OCC [Compound 40]	100 % of control value	0.978	61.2 ± 4.6%	potent pharmacological activity		
	CC(C)OP(=O)(CC(CCCc1ccccc1)CP(=O)(OC(C)C)OC(C)C)OC(C)C [Compound 56]	115 % of control value	1.115	100%		activators	
	CCCCCC(CP(=O)(OCCCC)OCCCC)CP(=O)(OCCCC)OCCCC [Compound 66]	26 % of control value	0.387	88.5 ± 0.5%		strong inhibitors	
	CCCCOP(=O)(CC(CCCC1CCCCC1)CP(=O)(OCCCC)OCCCC)OCCCC [Compound 68, Tetrabutyl 2-(3-Cyclohexylpropyl)-1,3-propylidenediphosphonate]	0 % of control value	0.000	100 ± 4%		strong inhibitors	
	CCCCOP(=O)(CC(Cc1ccc(-c2ccccc2)cc1)CP(=O)(OCCCC)OCCCC)OCCCC [Compound 84]	80 % of control value	0.886	98.5 ± 2.5%			
	CCCCOP(=O)(CC(CP(=O)(OCCCC)OCCCC)C(c1ccccc1)c1ccccc1)OCCCC [Compound 85]	112 % of control value	1.082	96.2 ± 0.8%			
	CCCCOP(=O)(CC(CP(=O)(OCCCC)OCCCC)c1ccccn1)OCCCC [Compound 86]	98 % of control value	1.052	89 ± 2%			
	CCCCOP(=O)(CC(Cc1ccncc1)CP(=O)(OCCCC)OCCCC)OCCCC [Compound 87]	93 % of control value	0.967	71.9 ± 1.9%	potent pharmacological activity		
	CCCCOP(=O)(CC(CCCc1cccnc1)CP(=O)(OCCCC)OCCCC)OCCCC [Compound 88]	69 % of control value	0.760	56.3 ± 5.9%	potent pharmacological activity	strong inhibitors	
	CC(C)COP(=O)(CC(CCCc1ccccc1)CP(=O)(OCC(C)C)OCC(C)C)OCC(C)C [Compound 111]	57 % of control value	0.809				100 ± 1.5%
	CCCCCOP(=O)(CC(CCCc1ccccc1)CP(=O)(OCCCCC)OCCCCC)OCCCCC [Compound 112, Tetrapentyl 2-(3-phenylpropyl)-1,3-propylidenediphosphonate]	0 % of control value	0.645				84 ± 3%
	CCCCCCOP(=O)(CC(CCCc1ccccc1)CP(=O)(OCCCCCC)OCCCCCC)OCCCCCC [Compound 113, Tetrahexyl 2-(3-phenylpropyl)-1,3-propylidenediphosphonate]	20 % of control value	0.621			strong inhibitors	90 ± 1.5%
	CCCCCOP(=O)(CC(CCCc1ccccc1)CP(=O)(OCC)OCCCCC)OCC (stereo not drawn) [Compound 117, Bis(ethyl, pentyl) 2-(3-phenylpropyl)-1,3-propylidenediphosphonate]	79 % of control value	0.950	60 ± 4%	potent pharmacological activity	strong inhibitors	
95%	CCN(CC)CCCCCCCCOC(=O)c1cc(OC)c(OC)c(OC)c1 [TMB-8, reference compound]						
